Experimental data taken from publication PMC5158083 (PLoS Pathogens, 2016).
Values joined by “and” are separate entries in the source; they are usually repeats but may differ in a detail not shown here. Equal entries are not always repeated. Non-standard residues stand in square brackets, D forms with d. Residues, ends and D or L forms follow the SMILES beside them. *: point of attachment. Sta = CC(C)C[C@H](N)[C@@H](O)CC(=O)O; Isovaleryl = CC(C)CC(=O)*

Tests used:
[1] = test system: peptidase activity in DMEM conditioned media; assay: Class-specific peptidase inhibitors on IQ substrate cleavage by DMEM conditioned media; type: biochemical, Cryptococcus neoformans; settings: 1 mM 1-10-phenanthroline
Method: (§1) Although peptidase activity was evident under both culture conditions, differential substrate cleavage reflected differences in specificity. […] Adjustment of YNB supernatants from pH 5.0 to 7.4 (the pH of DMEM media) yielded only very low levels of any peptidase activity, while lowering the pH of DMEM supernatants from 7.4 to pH 5.0 produced a peptidase activity pattern similar to YNB media (S1 Fig).
(§2) Assays were conducted at room temperature on a Biotek Synergy H4 plate reader in a 50 μl volume using 96-well round bottom, polystyrene plates (Corning) with λex 328 nm λem 393 nm unless otherwise stated. Substrates were each 7 or 8 amino acids with 7-methoxycoumarin-4-acetic acid or 7-methoxycoumarin-4-yl-acetyl-L-lysine on the amino terminus, and at the carboxyl terminus 4-dinitrophenyl-L-lysine or 4-dinitrophenyl bound directly to the carboxyl terminus as indicated (For sequences see S1 Table). Substrates were assayed at a 10 μM final concentration from DMSO stocks. […]
(§3) Supplementary file ppat.1006051.s001.pdf: S1 Fig Fluorogenic assays indicate the endopeptidase class present in conditioned media and the optimal pH for detection of activity. […] The activity scale is differs for this experiment because this assay was conducted on a SpectraMax Gemini plate reader (Molecular Devices) although conditions were otherwise equivalent. […]

May1 = target: T1, May1 (Cryptococcus neoformans, UniProt J9VS02); assay: May1 inhibition, fluorogenic IQ-2 assay (screen and IC50); type: biochemical; settings: for IC50: 14.6 nM May1, 10 μM IQ-2, 100 mM MES 100 mM NaCl pH 4.5, 10 min preincubation, read-out: IC50 against May1
T1 construct: endogenous in cells; host or cells: wild-type C. neoformans H99, 32-hour YNB culture supernatant, enriched on HiTrap DEAE
T1 sequence (J9VS02 99-455 limits assumed): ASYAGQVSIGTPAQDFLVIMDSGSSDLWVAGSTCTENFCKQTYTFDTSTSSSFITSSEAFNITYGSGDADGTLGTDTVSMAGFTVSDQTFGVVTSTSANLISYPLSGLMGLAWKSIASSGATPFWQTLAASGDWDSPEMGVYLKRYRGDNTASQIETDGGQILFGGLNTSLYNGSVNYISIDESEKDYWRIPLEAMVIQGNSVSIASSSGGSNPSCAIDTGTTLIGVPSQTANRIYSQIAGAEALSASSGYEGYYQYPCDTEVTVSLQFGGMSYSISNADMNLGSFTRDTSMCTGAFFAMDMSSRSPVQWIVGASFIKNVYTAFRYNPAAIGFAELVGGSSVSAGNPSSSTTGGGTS
Method: Assays were conducted at room temperature on a Biotek Synergy H4 plate reader in a 50 μl volume using 96-well round bottom, polystyrene plates (Corning) with λex 328 nm λem 393 nm unless otherwise stated. Substrates were each 7 or 8 amino acids with 7-methoxycoumarin-4-acetic acid or 7-methoxycoumarin-4-yl-acetyl-L-lysine on the amino terminus, and at the carboxyl terminus 4-dinitrophenyl-L-lysine or 4-dinitrophenyl bound directly to the carboxyl terminus as indicated (For sequences see S1 Table). Substrates were assayed at a 10 μM final concentration from DMSO stocks. Biotek Gen5 software was used to calculate initial velocities in relative fluorescent units per second (RFU/sec) from 20 points over the linear portion of each assay. To assay activity, YNB conditioned media was adjusted to pH 4.5 using 100 mM MES, 100 mM NaCl buffer, […] at a final concentration of 26 mM MES, 26 mM NaCl, unless otherwise stated. Conditioned DMEM media was first buffer exchanged into PBS using a centrifugal filter unit with a 3 kDa cutoff (Millipore) before use. The peptidase inhibitors pepstatin A, 1-10-phenanthroline, AEBSF and E64 were dissolved in DMSO and were obtained from Sigma-Aldrich.
To concentrate secreted May1, YNB conditioned media was prepared as described above from 32-hour cultures of wild-type C. neoformans. The media was then diluted 2.7-fold into buffer A (50 mM Tris base pH 8), chosen to increase the pH in order to limit May1 autoproteolysis, dilute salts in the media (final conductivity ~6%), and confer a negative charge to the peptidase domain. The media was then loaded onto a 1 ml HiTrap DEAE fast flow column (GE Healthcare) using a fast protein liquid chromatography system with a flow rate of 1.5 ml/min. May1 was eluted using a 30 minute linear gradient of 0–100% buffer B (50 mM Tris base, 1 M NaCl, pH 8). Active fractions were determined by measuring activity using the substrate IQ-2. They were then combined and approximate May1 concentration determined by active-site titration.
Published methods were followed with minor modifications.
IC50 calculations were conducted using 14.6 nM May1 (100 mM MES 100 mM NaCl pH 4.5). Inhibitor stocks were dissolved in DMSO and incubated with May1 for 10 minutes before addition of substrate. GraphPad Prism 6 was used to calculate IC50 values from a plot of the log of inhibitor concentration versus normalized response.

[2] = test system: peptidase activity in YNB conditioned media; assay: Class-specific peptidase inhibitors on IQ substrate cleavage by YNB conditioned media; type: biochemical, Cryptococcus neoformans; settings: 1 µM pepstatin
Method: as §1, §2, §3

may1Δ C. neoformans = assay: Culture density of may1Δ strain in YNB treated with May1 inhibitors; type: cell-based, Cryptococcus neoformans; settings: YNB cultures
Method: Average values and S.D. of triplicate measurements are shown. (B) Density at saturation (after 48 hours of growth) is shown for YNB cultures of wild type or may1Δ C. neoformans treated with May1 inhibitors. Average values and S.D. of triplicates are shown.

wild type C. neoformans = assay: Culture density at saturation (OD600) of wild type C. neoformans in YNB treated with May1 inhibitors; type: cell-based, Cryptococcus neoformans; settings: 2 μM pepstatin A
Method: Fig 5 May1 activity is required for wild-type growth at acidic pH. (A) Culture density was recorded over time by measuring OD600 of cultures grown in YNB. The average density and S.D. of triplicates are shown. (B) Culture density of wild-type C. neoformans grown in YNB containing 2 μM pepstatin A was recorded. Mock indicates DMSO treatment. The average and S.D. of cultures grown in triplicate are shown. (C) Mutant characterization assays were conducted using YNB agar plates. Cultures were adjusted to an OD600 of 5 and then spotted in 10-fold serial dilutions on plates. (D) Full rescue of may1Δ saturation density in YNB was observed after buffering to pH 6.5. Average density and S.D. of triplicates are shown.
Next, we selected the two best in vitro hits to test their potency in culture relative to pepstatin A by measuring inhibition of May1 and restriction of culture growth using fluorogenic assays and OD600 respectively. […] None of the three compounds affected the culture density of a may1Δ strain, consistent with the idea that May1 is the compounds’ relevant target in this context (S11 Fig). […] However, additional medicinal chemistry efforts are necessary for in vivo applications. Therefore, subsequent studies investigating the role of May1 in virulence were carried out using deletion strains of this enzyme. […]

| Structure (SMILES) | sensitivity of IQ substrate cleavage by DMEM conditioned media to inhibitor [1] | IC50 (May1) | reduction of May1 activity (May1; 1 μM inhibitor, substrate IQ-2) | inhibition of proteolysis of IQ-2 by enriched May1 (May1; May1 enriched from YNB conditioned media) | sensitivity of IQ substrate cleavage by conditioned YNB media to inhibitor [2] | effect on culture density of may1Δ cells (may1Δ C. neoformans) | saturation density of wild type cultures in YNB (wild type C. neoformans) |
| --- | --- | --- | --- | --- | --- | --- | --- |
| c1cnc2c(c1)ccc1cccnc12 [1-10-phenanthroline] | sensitive |  |  |  |  |  |  |
| Cc1nc(COc2ccc(C[C@H](NC(=O)O[C@H]3CO[C@H]4OCC[C@H]43)[C@H](O)CN(CC(C)C)S(=O)(=O)c3ccc4c(c3)OCO4)cc2)cs1 [Brecanavir] |  | 352 nM and ~352 nM | 80% |  |  |  |  |
| CC(C)CC(=O)N[C@H](C(=O)N[C@H](C(=O)N[C@@H](CC(C)C)[C@@H](O)CC(=O)N[C@@H](C)C(=O)N[C@@H](CC(C)C)[C@@H](O)CC(=O)O)C(C)C)C(C)C [Pepstatin A, pepstatin A] (Isovaleryl-VV[Sta]A[Sta]-OH) |  | 1.4 nM |  | fully inhibited | sensitive | no effect | saturation density defect equivalent to that observed for the MAY1 deletion strains |
